Reference: patent publication US20220233556A1, “COMPOSITIONS AND METHODS FOR TREATING OPHTHALMIC CONDITIONS” (Medicon Pharmaceuticals, Inc., priority 2017, published 2022)

Assays:
corneal sensitivity = experiment: Corneal touch threshold (CTT) assay, Cochet-Bonnet aesthesiometer; type: in vivo, rabbits; details: commercially available form, one eye drop
Experimental: FIGS. 10A and 10B illustrate the ocular analgesic effect of PS. FIG. 10A: One drop of PS 0.5%, vehicle, or lidocaine was applied to one eye of rabbits (n=4/group) and the corneal touch threshold (CTT) was determined using an Eshesiometer. Vehicle had no effect on CTT (not shown; overlaps with the 0 value horizontal line). Values=mean±SEM. FIG. 10B: PS 0.5% in formulations differing in pH as indicated produced different analgesic responses in rabbits. The areas under each curve (AUC), indicted in the figure, that quantify these responses vary by as much as >5 fold. Values are the average of 2; all were within 11% of each other.
FIGS. 11A and 11B illustrates the effect of various concentrations of PS on corneal sensitivity determined by the corneal touch threshold (CTT) assay. The CTT score is expressed as length of filament. Measurements were performed at the indicated time points after a single application of PS as an eye drop. Rabbits with normal or dry eyes were studied (n=6 eyes per group). Dry eyes were induced by Concanavalin A injection as described in the text. The % PS content in each study is shown. The numbers in parentheses indicate the corresponding value of the area under the curve. Values=mean±SEM.
FIGS. 12A and 12B illustrate the effect of various drugs on corneal sensitivity determined by the corneal touch threshold (CTT) assay described herein. Each drug was used in its commercially available form; one eye drop of each was applied. The numbers in parentheses indicate the corresponding value of the area under the curve. Values=mean±SEM.
The analgesic effect of PS was examined on the surface of the eye by determining the corneal touch threshold (CTT) using the Luneau Cochet-Bonnet Aesthesiometer (Western Ophthalmics, Lynwood, Wash.) an adjustable nylon monofilament with a defined diameter, which is applied in different lengths to the center of the cornea.
In this embodiment, the composition of the PS preparation was: 0.5% PS, 18% (2-hydroxypropyl)-β-cyclodextrin (HP-β-CD), 1-4% Tween 80. Preparation Method: HP-β-CD was dissolved in purified water maintained in a 50° C. water bath. PS was added into this solution and kept at 50° C. overnight with stirring at 500 rpm until PS was fully dissolved. Tween 80 was added into the PS HP-β-CD solution, which was then centrifuged at 3000 rpm for 10 min to remove undissolved particles. The supernatant was collected and pH was adjusted to the desired value using a NaOH solution. The analgesic effect of PS was examined as above.
The effect of PS and other compounds on corneal sensitivity was determined in rabbits with normal or dry eyes using the CTT assay as above; DED was induced by Concanavalin A as previously described. The CTT score, expressed as filament length in mm, of normal eyes was 5.56±0.11 mm (mean±SEM for this and subsequent values) and in dry eyes 4.17±0.12 mm; the difference between the two is statistically significant (p<0.0001).

[1] = Ocular PK study of PS nanoparticles (mPEG-PLA), topical eye drops; type: in vivo, New Zealand white rabbits; set-up: AUC(0-t) / AUC0-16h, cornea / AUC0-16h, conjunctiva: concentration or dose not given beside the values; details: PS and its metabolites
Experimental: Composition: ˜3.0-3.5% PS, 96.5˜97% methoxy poly(ethylene glycol)-poly(lactide) (mPEG-PLA).
Preparation Method: Oil phase: 150 mg of PS and 1 g of PEG-PLA (Akina, Inc) were dissolved in 20 mL dichloromethane (DCM). Water phase: 365 mg of sodium cholate were dissolved in 60 ml of purified water. 5 mL of the oil phase was gently added into 15 mL of the water phase in a 50 mL Eppendorf conical tube. To create an emulsion, we used robe sonication for 2 min at 75% output (Branson 150, Fisher Scientific™, USA); the watt output was 12-13. The emulsion was transferred into a 100 mL beaker and stirred overnight at 600 rpm in a chemical hood until the DCM was fully evaporated. This was followed by centrifugation at 14,000 rpm for 1 h (Dupont, RC-5C). Then, the supernatant was transferred to another tube into which 3 mL of PBS were added to resuspend the nanoparticles. The nanoparticle solution was centrifuged for 6-7 seconds to remove aggregates. This supernatant was the final preparation.
Ocular PK study: PS formulated in nanoparticles as above was administered topically as eye drops to New Zealand white rabbits. The biodistribution of PS in ocular tissues at the indicated time points post administration was determined by HPLC.

[2] = Rabbit ocular PK study of PS emulsion (2% PS); type: in vivo, New Zealand rabbits; details: 2% PS emulsion, three 25 μL eye drops; PS and its metabolites
Experimental: A formulation includes 2% PS; 5% Propylene glycol, 10% Mineral oil, 4% Tween 60, 4% Tween 80, 10% (2-hydroxypropyl)-β-cyclodextrin (HP-β-CD). Preparation method (2 mL scale): Oil phase: weight PS into glass vial, add propylene glycol, stir at 50° C. to obtain a clear solution. Then add mineral oil, stir to obtain a clear solution. Water phase: Dissolve HP-β-CD, […] and Tween 80 into water. Add water phase into oil phase, probe-sonicate for 5 sec, 8 times, with 5 sec intervals. Resultant emulsion is filtrated through 0.22 μm filter.
Rabbit ocular pharmacokinetic (PK) study: PS was administered to New Zealand rabbits topically to the eye; as three 25 μL eye drops, 5 min apart. Rabbits were euthanized at eight specified time points between 0.25 to 16 h, ocular tissues were dissected and PS was extracted with acetonitrile and its tissue levels as well as those of its metabolites were determined by HPLC as described (Xie G. et al., Br J Pharmacol 165:2′52-2166; 2012).

PGE2 = PGE2 levels in tears and cornea of rabbits (ELISA); type: in vivo; details: rabbits with Con A-induced DED, administered once topically, 1 h later
Experimental: FIGS. 9A and 9B illustrate that PS preserves the levels of PGE2 in tears and the cornea. In FIG. 9A, PGE2 levels were determined by ELISA in tears collected on day 7 from naïve rabbits and rabbits with Con A-induced DED treated for 1 week with vehicle or PS. In FIG. 9B, PGE2 levels were further examined. Upper panel: PGE2 levels in the tears of naïve rabbits and rabbits with Con A-induced DED treated for 1 h with PS or ketorolac as in Methods. Lower panel: PGE2 levels in the corneal tissue of naïve rabbits and rabbits with Con A-induced DED treated for 1 week with vehicle or PS or ketorolac or diclofenac. n=8 eyes/group. Values=mean±SEM.
It was determined that the levels of PGE2 in rabbit tears in three groups of rabbits, naïve and those with Con A-induced DED that were treated for 1 week either with PS or vehicle.
In an acute experiment, administered once topically to the eyes of four groups of rabbits with Con A-induced DED was one of the following: vehicle, PS, ketorolac or diclofenac; the latter two are NSAIDs used for the treatment of ocular inflammation and pain. It was determined that the levels of PGE2 in the cornea of these rabbits obtained 1 h later as well as in the corneas of naïve rabbits.

Con A-induced dry eye = Con A-induced dry eye disease (DED) in rabbits: TBUT, tear osmolarity, STT, tear lactoferrin; type: in vivo, New Zealand White (NZW) rabbits; details: 1 week of treatment, comparison with ophthalmic NSAIDs (FIG. 5)
Experimental: Con A was injected under ultrasound guidance into all the lacrimal glands and the success of the injection was verified by a post-injection ultrasound image (see FIG. 1 and FIG. 2). […] This variation explains why the blind injections recommended in the original method are often unsuccessful. This was confirmed by mixing the Con A solution with methylene blue and tracking its course after injection. In about ⅓ of the cases, Con A ended up outside the gland.
Four parameters of efficacy were evaluated instead of the usual one or two. They include (a) the tear break up time (TBUT), determined using 0.2% fluorescein over the eye and recording the time taken to develop black dots, lines or obvious disruption of the fluorescein film; (b) tear osmolarity, measured using TearLab Osmolarity Test and following the manufacturer's instructions (TearLab Corp., San Diego, Calif.); (3) Schirmer tear test (STT), determined using Schirmer strips (EagleVision, Denville, N.J.) inserted between the cornea and the palpebral conjunctiva at the mid-point of the lower lid and measuring the length of moistened strip at 5 min; and (4) tear lactoferrin levels measured by ELISA kit (MyBiosource, San Diego, Calif.) following the instructions of the manufacturer. All four have been used in clinical practice and correlate with the clinical activity of the disease. The STT is the least reliable and, as result, it is clinically used less than half as frequently as TBUT.
The injections of Con A to the lacrimal glands were repeated weekly as needed. When longer than a 1-week periods of study are needed, repeat injections prolong dry eye for at least 3 weeks, making the originally acute model chronic.
PS Suppresses Con A—Induced Dry Eye in Rabbits. The effect of PS on dry eye was determined in New Zealand White (NZW) rabbits, 2-3 kg (Charles River Labs, Waltham, Mass.). These rabbits were housed singly in rooms with strict temperature (70±5° F.) and humidity (45±5%) control and acclimated for at least 2 weeks prior to induction of dry eye by injection of Con A as above. NZW rabbits with Con A-induced dry eye (three sets of injections) were treated with PS formulated as nanoparticles and administered topically as eye drops 3×/day for 21 days, starting on the day of Con A injection. […] Similar results were obtained on days 5 and 14 (data not shown). […]
The efficacy of lower concentrations of PS. The efficacy of lower concentrations of PS, 0.1% and 0.2% in DED, was also evaluated. The same animal model (rabbits with Concanavalin A-induced DED) was used. The same methodology described herein was followed, except that PS was administered as two eye drops per eye (˜25 μL each) four times a day. PS was formulated in: 10% (2-hydroxypropyl)-β-cyclodextrin, 4% Tween 80, 2.5% Vitamin E TPGS, 1.4% polyvinyl alcohol (13,000-26,000 molecular weight), 0.001% polyquad, as described herein. The Table below summarizes the corresponding findings: […]

MMPs = experiment: MMP activity in the cornea of rabbits; type: in vivo; details: naïve rabbits, topical, 1 h
Experimental: FIGS. 8A and 8B illustrate that PS suppresses the levels and activity of MMPs. In FIG. 8A, the human conjunctival cells were treated with PS at 1×IC50 (TNF-α was added to the culture medium at a concentration of 10 ng/ml 2 h after PS. The levels of MMP-1 in the culture medium were determined by ELISA as in Methods (n=3). Values=mean±SEM. In FIG. 8B, two groups of rabbits with Con A-induced DED were treated with vehicle or PS for 1 week as in Methods. Naïve rabbits served as controls. MMP-9 levels in the ILG (top) and the aqueous humor (middle) were determined by ELISA. MMP activity was determined in the cornea of naïve and PS- or ketorolac-treated rabbits with Con A-induced DED as previously. n=8 eyes/group. Values=mean±SEM.
In an acute experiment, naïve rabbits were treated with either PS or ketorolac (both administered topically) for 1 h and determined the activity of MMP in the cornea. This assay determines the activity of MMPs collectively in a given tissue.

Row | Compound | effect on corneal sensitivity (CTT), dry eyes (corneal sensitivity) | effect on corneal sensitivity (CTT), normal eyes (corneal sensitivity) | Cmax, conjunctiva [1] [nM] | Cmax, cornea [1] [nM] | Cmax, aqueous humor [2] [μm] | Cmax, conjunctiva [2] [μm] | Cmax, cornea [2] [μm] | also measured
1 | Nc1c(CC(=O)O)cccc1C(=O)c1ccc(Br)cc1 [bromfenac, reference compound] | no analgesic effect | display analgesic efficacy | – | – | – | – | – | –
2 | CC1=C(CC(=O)O)c2cc(F)ccc2/C1=C\c1ccc([S+](C)[O-])cc1 (centres unmarked) [sulindac, reference compound] | – | – | 3800 | 3600 | 1.0 | 4.2 | 8.7 | –
3 | CS(=O)(=O)c1cccc(C[C@H](NC(=O)c2c(Cl)cc3c(c2Cl)CCN(C(=O)c2ccc4ccoc4c2)C3)C(=O)O)c1 [Lifitegrast, lifitegrast, reference compound] | lack any ocular analgesic effect | lack any ocular analgesic effect | – | – | – | – | – | –
4 | CC1=C(CC(=O)O)c2cc(F)ccc2/C1=C\c1ccc(S(C)(=O)=O)cc1 [sulindac sulfone] | – | – | 1600 | 1300 | 0.0 | 0.8 | 4.0 | AUC0-16h, conjunctiva [1]: 7.3 µM·h; AUC0-16h, cornea [1]: 10 µM·h; Tmax, cornea [1]: 4 h; AUC0-16h, conjunctiva [2]: 3.2 µM·h; AUC0-16h, cornea [2]: 24.4 µM·h; Tmax, aqueous humor [2]: 0.0 h; Tmax, conjunctiva [2]: 2.0 h; Tmax, cornea [2]: 4.0 h
5 | O=C(O)Cc1ccccc1Nc1c(Cl)cccc1Cl [diclofenac, reference compound] | – | – | – | – | – | – | – | PGE2 levels in the cornea (PGE2): suppressed nearly completely; STT (Con A-induced dry eye): failed to improve; TBUT (Con A-induced dry eye): failed to improve; osmolarity (Con A-induced dry eye): failed to improve
6 | O=C(c1ccccc1)c1ccc2n1CCC2C(=O)O (centres unmarked) [ketorolac, reference compound] | no analgesic effect | display analgesic efficacy | – | – | – | – | – | PGE2 levels in the cornea (PGE2): suppressed nearly completely; suppression of the activity of MMPs in the cornea (MMPs): failed to affect; STT (Con A-induced dry eye): failed to improve; TBUT (Con A-induced dry eye): failed to improve; osmolarity (Con A-induced dry eye): failed to improve
7 | CSc1ccc(/C=C2/C(C)=C(CC(=O)O)c3cc(F)ccc32)cc1 [sulindac sulfide] | – | – | 0 | 600 | 2.0 | 0.0 | 0.0 | –
